For this test, the target named is T1, human β3 receptors (Homo sapiens, UniProt P13945).
T1 construct: Full length β3 AR clones (402 amino acids) containing the last 6 amino acids of hβ3—AR; expressed in transfected cells; host or cells: CHO cells
Nature of the test: cAMP response (SPA) in CHO cells expressing cloned human β3 adrenergic receptor. Type of test: cell-based. The settings on record: for EC50: CHO cells expressing human β3 receptor, cAMP, 30 min incubation, 10^−9 M to 10^−5 M; for IA(β3): maximal response compared to the maximal response of isoproterenol at 10^−5 M. The method, boiled down:
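CHO cells transfected with cloned human β3-AR were incubated with compound at 37° C for 30 min, stopped with 0.2N HCl and neutralized. cAMP was measured by SPA. Activity is expressed as per cent of the maximal isoproterenol (10^−5 M) response.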

The structures appear in SMILES notation.

A word on the EC50: it is the concentration at which the effect is half-maximal. Read a high EC50 as a need for much substance.

T1 sequence (P13945 whole entry): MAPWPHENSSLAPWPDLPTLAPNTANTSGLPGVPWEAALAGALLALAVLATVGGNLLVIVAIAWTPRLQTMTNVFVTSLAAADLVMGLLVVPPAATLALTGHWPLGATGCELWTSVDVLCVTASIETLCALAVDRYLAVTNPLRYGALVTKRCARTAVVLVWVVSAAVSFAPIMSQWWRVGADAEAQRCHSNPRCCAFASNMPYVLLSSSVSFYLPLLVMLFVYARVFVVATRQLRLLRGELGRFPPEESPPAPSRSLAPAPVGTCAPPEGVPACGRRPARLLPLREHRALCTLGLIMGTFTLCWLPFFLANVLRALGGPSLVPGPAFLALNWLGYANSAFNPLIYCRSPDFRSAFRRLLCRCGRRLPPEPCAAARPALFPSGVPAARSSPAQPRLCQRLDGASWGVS

In the case of `O=C(NC1CCCCC1)N1CCC(CNC[C@H](O)COc2cccc3[nH]c4ccccc4c23)CC1` [Example 56, 4-{[(2S)-3-(9H-Carbazol-4-yloxy)-2-hydroxy-propylamino]-methyl}-piperidine-1-carboxylic Acid Cyclohexylamide], the EC50 amounted to 110 nM and the “IA(β3)” value amounted to 0.53.

Regarding `CS(=O)(=O)Nc1cc([C@@H](O)CNCC2CCN(c3ccc(S(=O)(=O)N4CCCCC4)cc3)CC2)ccc1O` [Example 106, (R)-N-{2-Hydroxy-5-[1-hydroxy-2-({1-[4-(piperidine-1-sulfonyl)-phenyl]-piperidin-4-ylmethyl}-amino)-ethyl]-phenyl}-methanesulfonamide], the EC50 was 1 nM and the “IA(β3)” value is reported as 0.97.

Consider `Cc1c(C)c(C)c(S(=O)(=O)N2CCC(CNC[C@H](O)c3ccc(O)c(NS(C)(=O)=O)c3)CC2)c(C)c1C` [Example 143, N-(2-hydroxy-5-{(1R)-1-hydroxy-2-[({1-[(2,3,4,5,6-pentamethylphenyl)suIfonyl]piperidin-4-yl}methyl)amino]ethyl}phenyl)methanesulfonamide], for which the midpoint of the response, the EC50, lay at 810 nM and the “IA(β3)” value is listed as 1.34.

Take `COc1ccc(S(=O)(=O)N2CCC(CNC[C@H](O)COc3cccc4c3CC(=O)N4)CC2)cc1OC` [Example 44, 4-((2S)-3-{[1-(3,4-Dimethoxy-benzenesulfonyl)-piperidin-4-ylmethyl]-amino}-2-hydroxy-propoxy)-1,3-dihydro-indol-2-one]: the 50% effective concentration (EC50) amounted to 421 nM and the “IA(β3)” value came to 0.46.

For `O=C1c2ccccc2-c2c(OC[C@@H](O)CNCC3CCN(CCC(F)(F)F)CC3)cccc21` [Example 13, 4-(2-Hydroxy-3-{[1-(3,3,3-trifluoro-propyl)-piperidin-4-ylmethyl]-amino}-propoxy)-fluoren-9-one], a half-maximal response (EC50) required 596 nM and the “IA(β3)” value came out at 0.62.

Consider `O=C(NC1CCCCC1)N1CCC(CNC[C@H](O)COc2ccc(O)cc2)CC1` [Example 57, 4-{[(2S)-2-Hydroxy-3-(4-hydroxy-phenoxy)-propylamino]-methyl}-piperidine-1-carboxylic Acid Cyclohexylamide], for which the EC50 was determined as 3190 nM and the “IA(β3)” value came to 0.46.

Take `COC(=O)c1cccc2c1ccn2-c1ccc(S(=O)(=O)N2CCC(CNC[C@H](O)c3ccc(O)c(NS(C)(=O)=O)c3)CC2)cc1` [Example 98, 1-[4-(4-{[(2R)-2-Hydroxy-2-(4-hydroxy-3-methanesulfonylamino-phenyl)-ethyl-amino]-methyl}-piperidine-1-sulfonyl)-phenyl]-1H-indole-4-carboxylic Acid Methyl Ester]: the EC50 stood at 25 nM and the “IA(β3)” value stood at 1.

Regarding `CC(C)S(=O)(=O)N1CCC(CNC[C@H](O)COc2cccc3[nH]c4ccccc4c23)CC1` [Example 32, (2S)-1-(9H-Carbazol-4-yloxy)-3-{[1-(ropane-2-sulfonyl)-piperidin-4-ylmethyl]-amino}-propan-2-ol], the concentration for a half-maximal effect (EC50) was 123 nM and the “IA(β3)” value is recorded as 0.8.

Turning to `COC(=O)[C@@H]1CCCN1C(=O)Nc1ccc(S(=O)(=O)N2CCC(CNC[C@H](O)c3ccc(O)c(NS(C)(=O)=O)c3)CC2)cc1` [Example 111, (2S)-1-({4-[(4-{[((2R)-2-Hydroxy-2-{4-hydroxy-3-[(methylsulfonyl)amino]-phenyl}ethyl)amino]methyl}piperidin-1-yl)sulfonyl]anilino}carbonyl)pyrrolidine-2-carboxylic Acid Methyl Ester], the EC50 was 95 nM and the “IA(β3)” value was 0.9.

Regarding `CC(C)(C)c1ccc(S(=O)(=O)N2CCC(CNC[C@H](O)c3ccc(O)c(NS(C)(=O)=O)c3)CC2)cc1` [Example 163, N-[5-((1R)-2-{[(1-{[4-(tert-butyl)phenyl]sulfonyl}piperidin-4-yl)-methyl]amino}-1-hydroxyethyl)-2-hydroxyphenyl]-methanesulfonamide], the EC50 was determined as 40 nM and the “IA(β3)” value is given as 0.85.

Source of the values: patent US6506901B2, “Substituted 2-(S)-hydroxy-3-(piperidin-4-yl-methylamino)-propyl ethers and substituted 2-aryl-2-(R)-hydroxy-1-(piperidin-4-yl-methyl)-ethylamine β-3 adrenergic receptor agonists” (Wyeth, priority 2000, dated 2003).
